Measurements published in US6458760B1, “Method for treating tissue damaged from ischemia” (Henry Ford Health System, priority 1998, dated 2002).
Residues, ends and D or L forms follow the SMILES beside them. *: point of attachment. Cbz = O=C(OCc1ccccc1)*; CHN2 = [N-]=[N+]=C*; Bn = c1ccc(C*)cc1

Target: Cathepsin B (Homo sapiens, UniProt P07858)
Assay: Cathepsin B inactivation rate, fluorimetric progress curves
Type: biochemical
Details: second order inactivation rate constant corrected for substrate; pH 5.4, 30° C.
Protocol: (“Tian, et al.”) the contents of which are incorporated by reference. More specifically, the value of kobs is given by the slope of a plot of ln [P]∞−[p]t versus t (time). The apparent second-order rate contact for inactivation, k2app was calculated as kobs/[I]. The inactivation-rates (kobs) in the presence of substrate and for different inhibitor concentrations for calpain, cathepsin B and cathepsin L are determined according to the method of Tian, et al. However, k2app is corrected for the presence of substrate (s) to give the second order rate constant k^12app, calculated as k^12app=k2app (1+[s]/Km).
Cathepsins B and L were preactivated with […] DTT in 50 mM sodium acetate buffer, pH 5.4, 1 mM EDTA for 2 h at 4° C. and assayed in the same buffer with 0.01% Brij [poly(oxyethylene) glycol dodecyl ether]. […] The inhibitors (0.1-1 μM) and substrate were added to the reaction mixture to incubate for 5 min in a cuvette thermostated at 30° C. Then, approximately 0.4 nM and 0.1 nM final concentration of cathepsin B and cathepsin L, respectively, were used to initiate the reaction. […] The progress curves were analyzed over at least 3 half lives to calculate the rate constants of inactivation in accordance with the procedure described by Crawford, C. Mason, R. W., Wilkström, P., and Shaw, E. in an article entitled “The design of peptidyldiazomethane inhibitors to distinguish between the cysteine proteinases calpain II, cathepsin L and cathepsin B.”, Biochem. J. 1988, 253, 751-758, the contents of which are incorporated by reference. The rates of inactivation of various substrates are tabulated hereinbelow.

[N-]=[N+]=CC(=O)C(COCc1ccccc1)NC(=O)C(Cc1ccccc1)NC(=O)OCc1ccccc1 (stereo not drawn) [CP-1, benzyloxycarbonyl-Phe-Ser(OBz)-CHN2] (Cbz-Phe-Ser(Bn)-CHN2; configuration not given here)
Cathepsin B k′2app: 8,800 M^−1S^−1
